Blank lines part the entries; values can stand above or below the molecule they belong to.
How the values were obtained:
[1] = molecular target: Interferon-induced, double-stranded RNA-activated protein kinase (Homo sapiens) (UniProt P19525); assay: Selectivity interaction (ActivX KiNativ screen (kinase selectivity in THP-1 cell lysates)) EUB0000639a EIF2AK2; assay type: subcellular; settings: lysate, at 0.01 µM
[2] = molecular target: T1, Bromodomain and PHD finger-containing protein 3 (Homo sapiens) (UniProt Q9ULD4); assay: Selectivity interaction (PWWP, WD40, and Tudor domain panel (DSLS measurements, literature)) EUB0000270b BRPF3
T1 sequence (whole entry): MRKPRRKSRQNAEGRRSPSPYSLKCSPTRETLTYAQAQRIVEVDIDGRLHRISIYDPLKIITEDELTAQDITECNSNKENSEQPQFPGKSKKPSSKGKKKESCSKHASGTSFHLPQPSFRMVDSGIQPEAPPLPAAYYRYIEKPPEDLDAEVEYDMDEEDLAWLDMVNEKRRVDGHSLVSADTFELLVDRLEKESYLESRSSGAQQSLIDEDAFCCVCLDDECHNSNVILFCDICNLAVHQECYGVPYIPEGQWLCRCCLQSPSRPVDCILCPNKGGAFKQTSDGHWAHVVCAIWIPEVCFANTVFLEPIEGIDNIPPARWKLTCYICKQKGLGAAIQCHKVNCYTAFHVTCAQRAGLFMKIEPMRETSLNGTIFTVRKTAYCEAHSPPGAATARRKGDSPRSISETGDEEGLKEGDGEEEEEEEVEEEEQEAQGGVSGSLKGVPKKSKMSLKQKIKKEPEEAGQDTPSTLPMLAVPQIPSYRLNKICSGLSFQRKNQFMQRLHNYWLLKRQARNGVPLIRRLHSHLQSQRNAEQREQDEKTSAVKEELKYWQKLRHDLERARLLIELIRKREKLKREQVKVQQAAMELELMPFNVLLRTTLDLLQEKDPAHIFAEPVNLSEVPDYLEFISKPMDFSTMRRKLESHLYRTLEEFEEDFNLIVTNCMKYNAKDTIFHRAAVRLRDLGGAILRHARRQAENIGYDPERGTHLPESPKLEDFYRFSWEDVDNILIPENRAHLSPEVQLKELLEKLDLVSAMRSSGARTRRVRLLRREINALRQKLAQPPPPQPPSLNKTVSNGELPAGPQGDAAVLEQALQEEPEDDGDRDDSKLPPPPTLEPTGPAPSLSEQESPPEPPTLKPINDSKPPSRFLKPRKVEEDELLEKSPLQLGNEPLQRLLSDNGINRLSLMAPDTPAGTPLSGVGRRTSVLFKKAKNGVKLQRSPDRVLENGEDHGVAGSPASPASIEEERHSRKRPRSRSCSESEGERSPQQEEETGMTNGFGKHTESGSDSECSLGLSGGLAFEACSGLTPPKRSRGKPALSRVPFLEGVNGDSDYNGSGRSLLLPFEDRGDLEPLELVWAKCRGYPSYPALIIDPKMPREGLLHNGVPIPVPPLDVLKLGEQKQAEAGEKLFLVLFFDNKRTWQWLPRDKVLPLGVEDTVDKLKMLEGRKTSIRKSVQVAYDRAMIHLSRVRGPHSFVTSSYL

[3] = molecular target: Fibroblast growth factor receptor 4 (Homo sapiens, UniProt P22455); assay: Selectivity interaction (Kinase panel (33PanQinase(R) Activity Assay)) EUB0000877a FGFR4
Sequence of Fibroblast growth factor receptor 4 (P22455 whole entry): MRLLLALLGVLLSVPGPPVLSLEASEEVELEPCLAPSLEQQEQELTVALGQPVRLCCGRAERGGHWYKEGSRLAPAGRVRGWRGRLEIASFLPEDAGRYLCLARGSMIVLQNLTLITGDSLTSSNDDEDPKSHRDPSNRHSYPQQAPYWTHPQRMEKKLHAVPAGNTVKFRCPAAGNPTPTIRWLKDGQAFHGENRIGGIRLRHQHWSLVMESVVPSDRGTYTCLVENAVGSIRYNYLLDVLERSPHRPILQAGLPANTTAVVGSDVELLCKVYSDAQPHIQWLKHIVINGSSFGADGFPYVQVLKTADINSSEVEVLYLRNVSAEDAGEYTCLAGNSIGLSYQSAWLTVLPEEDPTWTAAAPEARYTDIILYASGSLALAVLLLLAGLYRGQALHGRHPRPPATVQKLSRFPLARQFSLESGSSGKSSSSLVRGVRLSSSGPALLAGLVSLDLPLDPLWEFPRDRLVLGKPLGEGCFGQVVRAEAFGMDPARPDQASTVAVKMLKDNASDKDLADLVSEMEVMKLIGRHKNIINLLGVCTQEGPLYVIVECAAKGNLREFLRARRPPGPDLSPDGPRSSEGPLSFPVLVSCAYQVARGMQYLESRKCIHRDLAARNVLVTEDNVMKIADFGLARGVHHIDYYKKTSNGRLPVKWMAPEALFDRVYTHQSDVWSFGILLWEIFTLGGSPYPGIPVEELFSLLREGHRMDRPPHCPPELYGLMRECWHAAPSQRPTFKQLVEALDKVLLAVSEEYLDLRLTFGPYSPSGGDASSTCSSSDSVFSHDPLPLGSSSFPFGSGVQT

[4] = molecular target: Estrogen receptor (Homo sapiens) (UniProt P03372); assay: Selectivity interaction (Eurofins CEREP Diversity Profile (receptors and ion channels)) EUB0000279b ESR1; settings: at 10 µM
Sequence of Estrogen receptor (Homo sapiens) (P03372 whole entry): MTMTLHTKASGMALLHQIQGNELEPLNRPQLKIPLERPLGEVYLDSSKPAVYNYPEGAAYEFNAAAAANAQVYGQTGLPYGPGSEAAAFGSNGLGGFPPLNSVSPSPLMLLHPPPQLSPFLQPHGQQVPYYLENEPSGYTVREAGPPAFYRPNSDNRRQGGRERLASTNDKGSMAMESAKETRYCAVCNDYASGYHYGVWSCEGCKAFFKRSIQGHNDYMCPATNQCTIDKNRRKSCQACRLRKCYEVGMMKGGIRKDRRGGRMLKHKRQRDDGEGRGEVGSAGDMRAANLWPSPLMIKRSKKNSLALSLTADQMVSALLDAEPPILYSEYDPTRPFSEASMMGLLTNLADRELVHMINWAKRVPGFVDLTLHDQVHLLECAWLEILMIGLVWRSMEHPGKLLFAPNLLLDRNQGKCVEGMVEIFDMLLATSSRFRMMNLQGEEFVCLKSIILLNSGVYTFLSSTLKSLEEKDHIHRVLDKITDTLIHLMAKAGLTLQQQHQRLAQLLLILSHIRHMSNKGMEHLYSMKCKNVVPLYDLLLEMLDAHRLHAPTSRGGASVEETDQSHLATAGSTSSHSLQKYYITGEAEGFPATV

[5] = molecular target: TRAF2 and NCK-interacting protein kinase (Homo sapiens) (UniProt Q9UKE5); assay: Selectivity interaction (ActivX KiNativ screen (ex vivo kinase selectivity in human PBMCs)) EUB0001619a TNIK; assay type: cell-based; settings: PBMC, at 1 µM
Sequence of TRAF2 and NCK-interacting protein kinase (Homo sapiens) (Q9UKE5 whole entry, looked up): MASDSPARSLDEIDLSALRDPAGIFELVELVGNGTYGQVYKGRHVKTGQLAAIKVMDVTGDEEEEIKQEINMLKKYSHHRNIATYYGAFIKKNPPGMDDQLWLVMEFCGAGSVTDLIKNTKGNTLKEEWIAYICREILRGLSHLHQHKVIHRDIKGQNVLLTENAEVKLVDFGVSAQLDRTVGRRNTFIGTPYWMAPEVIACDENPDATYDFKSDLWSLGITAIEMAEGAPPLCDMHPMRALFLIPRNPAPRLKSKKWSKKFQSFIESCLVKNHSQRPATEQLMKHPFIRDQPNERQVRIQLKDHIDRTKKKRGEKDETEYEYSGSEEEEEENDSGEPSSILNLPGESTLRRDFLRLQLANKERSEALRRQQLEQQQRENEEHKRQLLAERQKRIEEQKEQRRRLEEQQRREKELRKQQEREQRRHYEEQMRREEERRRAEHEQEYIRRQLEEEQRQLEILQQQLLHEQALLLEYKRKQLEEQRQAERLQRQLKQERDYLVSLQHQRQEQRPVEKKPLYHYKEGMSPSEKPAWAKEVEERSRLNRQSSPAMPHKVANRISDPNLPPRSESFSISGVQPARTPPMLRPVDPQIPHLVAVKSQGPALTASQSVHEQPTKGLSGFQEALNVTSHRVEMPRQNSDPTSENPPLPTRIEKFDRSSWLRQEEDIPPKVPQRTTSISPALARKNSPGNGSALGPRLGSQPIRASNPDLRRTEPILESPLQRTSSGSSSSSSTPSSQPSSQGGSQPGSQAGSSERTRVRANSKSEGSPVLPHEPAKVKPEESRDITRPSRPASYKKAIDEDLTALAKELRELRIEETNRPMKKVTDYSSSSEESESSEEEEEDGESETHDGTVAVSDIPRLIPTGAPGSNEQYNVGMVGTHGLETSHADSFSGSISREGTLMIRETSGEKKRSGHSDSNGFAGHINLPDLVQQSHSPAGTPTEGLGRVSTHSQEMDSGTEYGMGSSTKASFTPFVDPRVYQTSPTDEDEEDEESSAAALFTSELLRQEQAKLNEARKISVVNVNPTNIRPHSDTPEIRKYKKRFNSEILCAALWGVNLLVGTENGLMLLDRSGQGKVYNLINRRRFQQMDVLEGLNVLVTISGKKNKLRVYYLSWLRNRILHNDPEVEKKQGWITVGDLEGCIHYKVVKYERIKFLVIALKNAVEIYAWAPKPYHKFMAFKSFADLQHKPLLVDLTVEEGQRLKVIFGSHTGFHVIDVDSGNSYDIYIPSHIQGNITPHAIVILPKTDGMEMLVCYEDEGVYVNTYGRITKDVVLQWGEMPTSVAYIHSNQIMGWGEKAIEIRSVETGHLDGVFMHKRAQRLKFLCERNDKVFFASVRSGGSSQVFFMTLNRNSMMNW

[6] = molecular target: Receptor-interacting serine/threonine-protein kinase 2 (Homo sapiens, UniProt O43353); assay: Selectivity interaction (KinomeScan (DiscoverX)) EUB0000618a RIPK2; settings: at 10 µM
Sequence of Receptor-interacting serine/threonine-protein kinase 2 (O43353 whole entry): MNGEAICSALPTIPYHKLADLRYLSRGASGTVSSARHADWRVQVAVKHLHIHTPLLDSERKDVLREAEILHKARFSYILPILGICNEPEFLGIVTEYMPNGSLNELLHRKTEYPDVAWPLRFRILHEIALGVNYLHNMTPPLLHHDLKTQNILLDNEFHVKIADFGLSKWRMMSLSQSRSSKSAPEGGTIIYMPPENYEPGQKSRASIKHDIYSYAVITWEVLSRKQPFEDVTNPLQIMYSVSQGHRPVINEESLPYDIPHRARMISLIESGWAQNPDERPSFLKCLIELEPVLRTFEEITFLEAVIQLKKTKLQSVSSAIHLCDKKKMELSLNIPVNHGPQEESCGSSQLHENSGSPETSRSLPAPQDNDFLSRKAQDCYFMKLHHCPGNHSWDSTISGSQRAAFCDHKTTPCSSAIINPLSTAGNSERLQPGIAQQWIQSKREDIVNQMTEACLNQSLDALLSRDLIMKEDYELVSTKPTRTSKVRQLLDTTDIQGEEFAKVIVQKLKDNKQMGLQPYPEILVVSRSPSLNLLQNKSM

[7] = molecular target: T2, Histone-lysine N-methyltransferase EHMT1 (Homo sapiens) (UniProt Q9H9B1); assay: Selectivity interaction (Methyltransferase screen (Scintillation proximity assays)) EUB0000255b EHMT1
T2 sequence (whole entry): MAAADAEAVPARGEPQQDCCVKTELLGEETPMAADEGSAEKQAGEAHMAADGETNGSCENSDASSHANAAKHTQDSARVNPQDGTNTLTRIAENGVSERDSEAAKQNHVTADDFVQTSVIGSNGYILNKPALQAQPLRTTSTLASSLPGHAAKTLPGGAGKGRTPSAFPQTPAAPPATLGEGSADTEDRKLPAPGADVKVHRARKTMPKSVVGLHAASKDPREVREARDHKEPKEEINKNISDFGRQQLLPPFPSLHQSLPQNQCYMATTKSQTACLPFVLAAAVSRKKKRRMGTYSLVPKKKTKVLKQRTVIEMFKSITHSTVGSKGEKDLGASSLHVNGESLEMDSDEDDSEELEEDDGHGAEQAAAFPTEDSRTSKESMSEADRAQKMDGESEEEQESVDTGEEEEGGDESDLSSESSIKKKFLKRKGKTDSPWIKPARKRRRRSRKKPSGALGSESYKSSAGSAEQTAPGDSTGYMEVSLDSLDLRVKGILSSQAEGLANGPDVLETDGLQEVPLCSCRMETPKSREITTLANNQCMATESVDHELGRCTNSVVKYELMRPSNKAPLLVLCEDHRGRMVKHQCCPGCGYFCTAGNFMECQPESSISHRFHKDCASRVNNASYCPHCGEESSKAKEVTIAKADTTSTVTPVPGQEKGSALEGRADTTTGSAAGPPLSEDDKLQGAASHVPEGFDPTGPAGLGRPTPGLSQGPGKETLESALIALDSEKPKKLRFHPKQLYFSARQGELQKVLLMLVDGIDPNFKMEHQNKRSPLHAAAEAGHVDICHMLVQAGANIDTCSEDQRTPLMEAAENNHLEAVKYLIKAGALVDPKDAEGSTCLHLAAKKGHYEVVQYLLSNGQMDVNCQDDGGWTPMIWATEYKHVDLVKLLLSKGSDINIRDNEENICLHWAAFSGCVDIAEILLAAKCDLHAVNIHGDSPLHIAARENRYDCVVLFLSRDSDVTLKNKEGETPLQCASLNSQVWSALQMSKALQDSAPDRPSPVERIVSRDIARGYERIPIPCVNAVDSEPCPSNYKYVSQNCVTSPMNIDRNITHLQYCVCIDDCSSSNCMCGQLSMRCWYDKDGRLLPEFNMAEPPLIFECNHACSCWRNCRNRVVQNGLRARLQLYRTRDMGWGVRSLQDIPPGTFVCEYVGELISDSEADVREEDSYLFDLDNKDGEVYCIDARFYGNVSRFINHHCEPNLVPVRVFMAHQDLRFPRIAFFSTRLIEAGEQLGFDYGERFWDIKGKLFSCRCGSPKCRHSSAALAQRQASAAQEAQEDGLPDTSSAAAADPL

[8] = molecular target: Tyrosine-protein kinase Yes (Homo sapiens) (UniProt P07947); assay: Selectivity interaction (KinomeScan (DiscoverX)) EUB0000666a YES1; settings: at 10 µM
Sequence of Tyrosine-protein kinase Yes (Homo sapiens) (P07947 2-543 limits assumed): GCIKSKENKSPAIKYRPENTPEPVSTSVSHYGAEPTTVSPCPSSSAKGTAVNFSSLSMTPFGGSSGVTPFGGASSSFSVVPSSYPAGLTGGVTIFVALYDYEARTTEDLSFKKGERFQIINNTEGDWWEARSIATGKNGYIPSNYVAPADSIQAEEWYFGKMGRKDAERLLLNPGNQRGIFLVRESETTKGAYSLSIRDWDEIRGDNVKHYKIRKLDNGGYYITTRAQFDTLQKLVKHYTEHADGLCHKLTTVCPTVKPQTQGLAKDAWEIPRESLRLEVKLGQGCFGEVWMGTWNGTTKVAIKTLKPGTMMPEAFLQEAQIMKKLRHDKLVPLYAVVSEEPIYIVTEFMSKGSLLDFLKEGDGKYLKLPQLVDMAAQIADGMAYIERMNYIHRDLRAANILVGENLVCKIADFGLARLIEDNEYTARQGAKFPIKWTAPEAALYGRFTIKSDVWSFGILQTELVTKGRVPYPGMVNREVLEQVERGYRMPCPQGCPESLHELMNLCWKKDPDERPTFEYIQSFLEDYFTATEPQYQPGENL

Sequence of Interferon-induced, double-stranded RNA-activated protein kinase (Homo sapiens) (P19525 whole entry, the tested form may be a part): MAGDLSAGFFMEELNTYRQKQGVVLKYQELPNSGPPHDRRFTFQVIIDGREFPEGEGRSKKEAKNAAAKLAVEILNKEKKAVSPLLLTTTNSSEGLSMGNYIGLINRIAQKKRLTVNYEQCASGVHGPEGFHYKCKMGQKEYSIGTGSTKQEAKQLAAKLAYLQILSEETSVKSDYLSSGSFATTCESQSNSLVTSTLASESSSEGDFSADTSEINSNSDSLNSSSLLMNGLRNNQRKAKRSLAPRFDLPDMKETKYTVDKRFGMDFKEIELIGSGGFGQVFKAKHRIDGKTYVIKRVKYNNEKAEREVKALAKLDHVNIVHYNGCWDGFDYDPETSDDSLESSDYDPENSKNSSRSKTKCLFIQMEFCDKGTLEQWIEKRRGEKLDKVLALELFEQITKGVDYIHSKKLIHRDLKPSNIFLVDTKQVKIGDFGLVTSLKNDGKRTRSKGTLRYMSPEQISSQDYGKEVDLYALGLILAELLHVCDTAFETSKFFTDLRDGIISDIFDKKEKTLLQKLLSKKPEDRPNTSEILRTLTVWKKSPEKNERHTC

SMILES: Cc1cc(CN)cc(C)c1-c1ncn(C)c1-c1cncn1C
dTagg [2]: 0.3 K

SMILES: N#Cc1cccc(-c2c[nH]c3ncnc(N4CCOCC4)c23)c1
% of inhibition [5]: 29%

SMILES: O[C@H]1CC[C@H](Nc2ncc3nc(Nc4c(F)cc(F)cc4F)n([C@H]4CCOC4)c3n2)CC1
% of control [6]: 37%

SMILES: COCCN1CCC(c2cc(CN(C)C(=O)c3cccc(Oc4ccccc4)c3)ccn2)CC1
% activity ([7]; at 1 µM): > 95%
% activity ([7]; at 10 µM): > 90%

SMILES: O=C(NOC[C@H](O)CO)c1ccc(F)c(F)c1Nc1ccc(I)cc1F
% of control [8]: 73%

The next lines start with the values.

% of inhibition [1]: -1.7%
SMILES: CC[C@@H]1[C@H](F)C(=O)N[C@@H]1COc1nccc2cc(C(N)=O)c(OC)cc12 [ZIMLOVISERTIB]

IC50 [3]: > 10 µM
SMILES: CCC(=O)N1CC[C@H](Nc2ncnc3c2CN(c2cnc(OC)c(C(F)(F)F)c2)CC3)C1 [LENIOLISIB]

% of control [4]: 98%
SMILES: CC(=O)c1cc(-c2ccccc2OCC2CC2)c2ncccn12
